{"source": "patent US20120005765A1", "about": "“ANIMAL MODEL FOR PARKINSON'S DISEASE” (Saint Louis University, priority 2010, published 2012)", "key": {"PC12 cells": {"tested_on": "PC12 cells", "assay": "DOPAL toxicity in vitro, viable PC12 cell count (trypan blue)", "settings": "for PC 12 cells/well × 103: rat", "protocol": "Determination of DOPAL toxicity in vitro Toxicity experiments were essentially as described previously. PC12 cultures were initially expanded in T-75 flasks with 20 ml Dulbecco's Modified Eagle's Medium supplemented with 4.5 g/l glucose, 4 mM L-glutamine, 5% fetal calf serum, 10% horse serum, 1000 units/l penicillin, and 100 mg/l streptomycin. Cells were transferred to six well culture plates with 2 ml media and grown to 1.5×10^5 cells/well, treated with 50 ng/ml nerve growth factor (NGF), and maintained in NGF-containing media for 7 d prior to experimentation. The medium was changed every 2-3 d. […] During the experiments, the medium was replaced once a day. Cells were detached with buffered saline containing EDT A, centrifuged at 200×g and resuspended in trypan blue for counting of viable cells. […] DOPAL and other compounds were added as described in the description of the figure and examples. Data was analyzed by ANOVA.\nDOPAL, as well as other physiologically metabolites and adducts, were added to PC12 cells in culture at concentrations that were physiologically relevant."}, "[1]": {"tested_on": "dopaminergic neurons in the substantia nigra", "assay": "Tyrosine hydroxylase immunohistochemistry and densitometry after DOPAL injection into substantia nigra", "assay_type": "in vivo, rat", "protocol": "Immunohistochemistry. Eighteen hours (two rats) or 5 days following the surgery the rats were anesthetized and perfused through the left ventricle of the heart with 0.1 M phosphate buffer containing 4% paraformaldehyde. The brains were removed, post-fixed for at least 4 h, sunk in 25% sucrose, and sectioned frozen at 50 pm with a sliding microtome. Adjacent series of sections were subjected to a conventional immunoperoxidase protocol using antibodies against tyrosine hydroxylase (TH; Sigma, monoclonal, made in […], used at a dilution of 1:6000), neuronal nuclear antigen (NeuN, Chemicon, Temecula, Calif., USA, made in rabbit, used at 1:20,000) or glial fibrillary acidic protein (GFAP, made in rabbit, used at 1:5000). Briefly, the sections were immersed overnight in 0.1 M Sorenson's phosphate buffer (SPB, pH 7.4) containing 0.2% Triton X-100 (SPB/Triton) and primary antibody with agitation. The following morning they were thrice rinsed in SPB/Triton and immersed for 1 h in SPB/Triton containing biotinylated secondary antibodies against the host species of the primary antibodies, used at a dilution of 1:200. The sections were again thrice rinsed in SPB/Triton and then immersed in SPB/Triton containing ABC reagents (Vector, Burlingame, Calif., USA) used at a dilution of 1:200. After further rinsing in SPB the sections were reacted with 3,3-diaminobenzidine (DAB) and hydrogen peroxide to produce an insoluble brown reaction product that was further intensified with osmium and thiocarbohydrazide as has been described. All immersions and rinses were done at room temperature. In addition, a series of sections from many of the brains was mounted and processed for Nissl staining using a standard cresyl violet staining procedure. […]\nDetermination of DOPAL-induced Parkinson's disease-like behavior Injections of DOPAL or ALDH1A1 antisense oligo into rat SN. […] After 5-7 weeks, rats were injected with apomorphine (0.4 mg/kg, subcutaneously) and rotational asymmetry determined in each group just prior to sacrifice. […]"}, "Substantia Nigra Neurons": {"tested_on": "Substantia Nigra Neurons", "assay": "Unbiased stereology of substantia nigra neurons after DOPAL injection", "assay_type": "in vivo", "set-up": "TOTAL SNpc Neurons / TOTAL SNr Neurons / TH SNpc Neurons: dose or concentration left out as unconfirmed", "description": "Neuropathological Evaluation: Stereology The SN was included in 8-10 sections of all cases counted, and its total length was approximately 1.25 mm. Mean volume of the SNpc of control rats was […], while that of the SNpr was 777,696,500 m^3. Mean volume of the SNpc in the DOPAL injected rats was 264,674,833 m^3 while that of the SNpr was 760,212,500 m^3. There was no significant difference in mean volumes of SNpc or SNpr between controls and DOPAL injected rats. The inventors first counted TH immunoreactive neurons in the SNpc on the side of the DOPAL injection and compared them to those on the non-injected side. […] However, the inventors noted that numerous SNpc neurons sometimes were not stained for TH despite robust labeling of others (FIG. 3F). Thus, the inventors compared the number of Nissl stained profiles in sections immunostained with a-syn rather than TH in the SNpc's ipsilateral to the DOPAL injections to those of control rats which had received injections of a buffered saline solution into their SN's (Table 3). […] The inventors then determined whether DOPAL was toxic to neurons in the subjacent pars reticulata of the SN. The number of neurons in the SNpr of the DOPAL-injected rats was not different from the saline-injected rats (Table 3; FIG. 4C).\nThe effect of DOPAL injections into the substantia nigra on neurons in either the pars compacta (SNpc) or the pars reticularis (SNpr) are shown. Control animals were injected with buffered saline while experimental animals were injected with DOPAL (4 mg/800 nl). Unbiased stereology was used to assess the number of neurons (see Methods). Means (SD); n.s.=not significant."}}, "data": [{"compound": "O=CCc1ccc(O)c(O)c1", "note": "[DOPAL, 3,4-dihydroxyphenylacetaldehyde]", "values": [{"measurement": "toxic in vitro at physiological levels", "setting": "PC12 cells", "result": "toxic"}, {"measurement": "PC 12 cells/well × 103", "setting": "PC12 cells; 6.6 μM", "result": "105 ± 12", "unit": "b cells/well × 103"}, {"measurement": "PC 12 cells/well × 103", "setting": "PC12 cells; 30 μM", "result": "107 ± 10", "unit": "b cells/well × 103"}, {"measurement": "PC 12 cells/well × 103", "setting": "PC12 cells; 66 μM", "result": "100 ± 5", "unit": "a cells/well × 103"}, {"measurement": "immunoreactivity of TH in the SN ipsilateral to injection", "setting": "[1]; vs contralateral non-injected side", "result": "decrease"}, {"measurement": "reduction in TH immunoreactivity in the striatum ipsilateral to injection", "setting": "[1]; vs contralateral non-injected side, background subtracted", "result": 28, "unit": "%"}, {"measurement": "loss of TH immunoreactivity by spot density, ventrolateral striatum ipsilateral to injection", "setting": "[1]; vs contralateral side", "result": 80, "unit": "%"}, {"measurement": "TOTAL SNpc Neurons", "setting": "Substantia Nigra Neurons; DOPAL into substantia nigra, Means (SD), control 11926 (1084)", "result": "6879 (422)"}, {"measurement": "TH SNpc Neurons", "setting": "Substantia Nigra Neurons; DOPAL into substantia nigra, Means (SD), control 11969 (3699)", "result": "5884 (1365)"}, {"measurement": "TOTAL SNr Neurons", "setting": "Substantia Nigra Neurons; DOPAL into substantia nigra, Means (SD), control 12422 (832)", "result": "11761 (715)"}, {"measurement": "number of Nissl-stained neurons in the SNpc, less than saline-injected rats", "setting": "Substantia Nigra Neurons; p=0.001", "result": 43, "unit": "%"}, {"measurement": "mean number of TH immunoreactive SNpc neurons ipsilateral, less than contralateral non-injected side", "setting": "Substantia Nigra Neurons; p=0.032", "result": 50, "unit": "%"}, {"measurement": "number of neurons in the SNpr vs saline-injected rats", "setting": "Substantia Nigra Neurons; rat, in vivo", "result": "not different"}]}]}
